Measured values as given in article PMC6271259, “Design, Synthesis and SAR Study of Novel Trisubstituted Pyrimidine Amide Derivatives as CCR4 Antagonists” (Molecules, 2014).

Experiments:
CCR4 = molecular target: T1, CCR4 (Homo sapiens, UniProt P51679); assay: CCR4-MDC chemotaxis inhibition assay (48-well Boyden chamber, L1.2 cells transfected with pcDI-CCR4); type: cell-based; conditions: for Chemotaxis inhibition activity against CCR4 (in words, compared with compound 1): CCR4-MDC chemotaxis inhibition assay, compound 1 as positive control; for IC50: MDC 10 ng/mL, L1.2 cells transfected with pcDI-CCR4, compound preincubation 30 min at 37 °C, chamber 6 h, assayed three times, NA = no significant inhibition
T1 construct: expressed in transfected cells; host or cells: L1.2 cells transfected with pcDI-CCR4
T1 sequence (P51679 1-360): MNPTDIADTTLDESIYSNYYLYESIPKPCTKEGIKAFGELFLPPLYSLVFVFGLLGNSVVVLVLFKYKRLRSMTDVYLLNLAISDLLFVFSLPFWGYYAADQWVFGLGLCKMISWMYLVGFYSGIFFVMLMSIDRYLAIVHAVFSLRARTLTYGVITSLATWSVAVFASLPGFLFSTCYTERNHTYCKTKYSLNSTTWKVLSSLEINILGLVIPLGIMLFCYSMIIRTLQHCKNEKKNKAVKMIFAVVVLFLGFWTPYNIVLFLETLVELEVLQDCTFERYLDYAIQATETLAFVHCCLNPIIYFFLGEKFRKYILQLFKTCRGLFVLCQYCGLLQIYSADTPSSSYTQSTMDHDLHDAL
Procedure: All the newly synthesized compounds were evaluated by a CCR4-MDC chemotaxis inhibition assay. Compound 1 was employed as the positive control.
The quantitative chemotaxis assays were performed using 48-well Boyden chambers (Neutroprobe, Bethesda, MD, USA) with polyvinylpyrrolidone-free polycarbonate filters with 5 μm pores. The MDC (Peprotech, Rocky Hill, NJ, USA) with a final concentration of 10 ng/mL was added into the lower wells. The L1.2 cells that were transfected with pcDI-CCR4 were suspended in assay buffer at 3 × 10^6 cells/mL, incubated with various final concentrations of compounds for 30 min at 37 °C, and then added to the upper wells. The chamber was incubated for 6 h at 37 °C in an atmosphere containing 5% CO2, and then the upper chambers were removed. The chemotaxis buffer in the lower wells was then harvested and mixed with 25 μL of the luciferase-containing reagent, Cell-Titer Glo. The number of L1.2 cells in the lower well medium was measured with a Veritas Microplate Luminometer (Turner BioSystems, Sunnyvale, CA, USA). All samples were assayed three times. The negative control samples and solvent control samples were defined as the cells migrating toward the lower wells in the absence of chemokine, and as the cells migrating toward the MDC-containing lower wells in the absence of compound in the presence of DMSO, respectively. The percentage of inhibition was determined by the following equation: inhibition = (C − A)/(C − B) × 100%, where A indicates the number of cells in the sample, B indicates the number of cells in the negative control sample and C indicates the number of cells in the solvent control sample. The results are expressed as an IC50 value (sample concentration that inhibits 50% chemotaxis) and calculated using Origin 8.0 software.

CCR4-positive cells = test system: CCR4-positive cells; parameters: method as in earlier work; conditions: migration induced by MDC, TARC, and CKLF1; cited from earlier work

| Chemotaxis inhibition activity against CCR4 (in words, compared with compound 1) (CCR4) | IC50 (CCR4) | melting point | SMILES | Inhibition of migration of CCR4-positive cells (CCR4-positive cells) |
| --- | --- | --- | --- | --- |
| slightly reduced activity | 94 ± 17 nM | 87.2 to 89 °C | O=C([C@H]1CCCCN1)N1CCN(c2nc(Cl)cc(NCc3ccc(F)cc3F)n2)CC1 [Compound 6e] |  |
| relatively poorer activity | 133 ± 21 nM |  | O=C([C@H]1CCCCN1)N1CCN(c2nc(NCc3ccc(Cl)cc3Cl)cc(N3CCCCC3)n2)CC1 [Compound 7a, (R)-2-[4-(Piperidin-2-yl)carbonylpiperazino]-N-(2,4-dichlorobenzyl)-6-piperidino pyrimidin-4-amine] |  |
|  | 64 ± 15 nM | 166.5 to 168.5 °C | CN(C)CC(=O)N1CCN(c2nc(Cl)cc(NCc3ccc(Cl)cc3Cl)n2)CC1 [Compound 6c, 6-Chloro-2-[4-(N,N-dimethylaminomethyl)carbonylpiperazino]-N-(2,4-dichlorobenzyl)pyrimidin-4-amine] |  |
|  | 78 ± 13 nM |  | O=C([C@H]1CCCCN1)N1CCN(c2nc(Cl)cc(NCc3ccc(Cl)cc3Cl)n2)CC1 [Compound 1] | inhibit the migration of CCR4-positive cells |
| relatively weak activity | 235 ± 45 nM | 124.3 to 125.8 °C | Cc1cc(NCc2ccc(Cl)cc2Cl)nc(N2CCN(C(=O)[C@H]3CCCO3)CC2)n1 [Compound 12d, (R)-2-[4-(Tetrahydrofuran-2-yl)carbonylpiperazino]-N-(2,4-dichlorobenzyl)-6-methylpyrimidin-4-amine] |  |
| relatively poorer activity | 395 ± 66 nM | 167.8 to 169.5 °C | O=C([C@H]1CCCCN1)N1CCN(c2nc(NCc3ccc(Cl)cc3Cl)cc(N3CCOCC3)n2)CC1 [Compound 7b, (R)-2-[4-(Piperidin-2-yl)carbonylpiperazino]-N-(2,4-dichlorobenzyl)-6-morpholino pyrimidin-4-amine] |  |
|  | 69 ± 15 nM |  | Cc1cc(NCc2ccc(Cl)cc2Cl)nc(N2CCN(C(=O)CN(C)C)CC2)n1 [Compound 12b, 2-[4-(N,N-dimethylaminomethyl)carbonylpiperazino]-N-(2,4-dichlorobenzyl)-6-methyl pyrimidin-4-amine] |  |
| significantly reduced activity | 458 ± 51 nM |  | O=C([C@H]1CCCCN1)N1CCN(c2nc(Cl)cc(NCc3ccc(Cl)cc3)n2)CC1 [Compound 6d, (R)-6-Chloro-2-[4-(piperidin-2-yl)carbonylpiperazino]-N-(4-chlorobenzyl)pyrimidin-4-amine] |  |
|  | 77 ± 13 nM | 82.6 to 84.5 °C | Cc1cc(NCc2ccc(Cl)cc2Cl)nc(N2CCN(C(=O)[C@H]3CCCCN3)CC2)n1 [Compound 12a, (R)-2-[4-(Piperidin-2-yl)carbonylpiperazino]-N-(2,4-dichlorobenzyl)-6-methylpyrimidin-4-amine] |  |
| relatively weak activity | 178 ± 28 nM | 146.4 to 148 °C | Cc1cc(NCc2ccc(Cl)cc2Cl)nc(N2CCN(C(=O)C3CCN(C)CC3)CC2)n1 [Compound 12c, 2-[4-(N-methylpiperidin-4-yl)carbonylpiperazino]-N-(2,4-dichlorobenzyl)-6-methylpyrimidin-4-amine] |  |

| SMILES | Chemotaxis inhibition activity against CCR4 (in words, compared with compound 1) (CCR4) | IC50 (CCR4) | melting point | Inhibition of migration of CCR4-positive cells (CCR4-positive cells) |
| --- | --- | --- | --- | --- |
| O=C(C1CCCCC1)N1CCN(c2nc(Cl)cc(NCc3ccc(Cl)cc3Cl)n2)CC1 [Compound 6b, 6-Chloro-2-(4-cyclohexylcarbonylpiperazino)-N-(2,4-dichlorobenzyl)pyrimidin-4-amine] | did not result in significant inhibition activity |  | 175.3 to 177.1 °C |  |
| O=C(c1ccccn1)N1CCN(c2nc(Cl)cc(NCc3ccc(Cl)cc3Cl)n2)CC1 [Compound 6a, 6-Chloro-2-[4-(pyridin-2-yl)carbonylpiperazino]-N-(2,4-dichlorobenzyl)pyrimidin-4-amine] | did not result in significant inhibition activity |  |  |  |
